Where no end group is shown, it is not given here.

In one test the test system is E. coli KCTC2593. The class given is cell-based, Escherichia coli. The settings on record: E. coli KCTC2593; broth microdilution, 37°C, 16 h; three independent experiments in triplicate, SD 14.0%. For orientation: Broth dilution looks for growth in wells or tubes with falling amounts of substance.
A further test has as its system P. aeruginosa KCTC1637. The class given is cell-based, Pseudomonas aeruginosa. The settings on record: P. aeruginosa KCTC1637; broth microdilution, 37°C, 16 h; three independent experiments in triplicate, SD 14.0%.
Another test has as its system P. aeruginosa KCTC2513. The class given is cell-based, Pseudomonas aeruginosa. The note with it: P. aeruginosa KCTC2513; broth microdilution, 37°C, 16 h; three independent experiments in triplicate, SD 14.0%.
Another test relates to S. typhimurium KCTC1926. It counts as cell-based, Salmonella typhimurium. The note with it: S. typhimurium KCTC1926; broth microdilution, 37°C, 16 h; three independent experiments in triplicate, SD 14.0%.
The next test deals with S. epidermidis KCTC1917. The class given is cell-based, Staphylococcus epidermidis. The note with it: S. epidermidis KCTC1917; broth microdilution, 37°C, 16 h; three independent experiments in triplicate, SD 14.0%.
A further test relates to S. aureus KCTC1621. It counts as cell-based, Staphylococcus aureus. The settings on record: S. aureus KCTC1621; broth microdilution, 37°C, 16 h; three independent experiments in triplicate, SD 14.0%.
The subject of another test is MRSA CCARM 3126. It counts as cell-based, Methicillin-resistant S. aureus. The note with it: MRSA CCARM 3126; broth microdilution, 37°C, 16 h; three independent experiments in triplicate, SD 14.0%.
A further test deals with MDRST CCARM 8007. The class given is cell-based, multidrug-resistant S. typhimurium. The settings on record: broth microdilution, 37°C, 16 h, three independent experiments in triplicate, SD 14.0%.
Another test has as its system MDRST CCARM 8009. The class given is cell-based, multidrug-resistant S. typhimurium. The note with it: broth microdilution, 37°C, 16 h, three independent experiments in triplicate, SD 14.0%.
The subject of a further test is MDREC CCARM 1238. It counts as cell-based, multidrug-resistant E. coli. The settings on record: broth microdilution, 37°C, 16 h, three independent experiments in triplicate, SD 14.0%.
In another test the test system is MDRAB CCARM 12037. It counts as cell-based, multidrug-resistant Acinetobacter baumanii. The settings on record: broth microdilution, 37°C, 16 h, three independent experiments in triplicate, SD 14.0%.
The next test concerns MDRPA CCARM 2002. It counts as cell-based, multidrug-resistant P. aeruginosa. The note with it: broth microdilution, 37°C, 16 h, three independent experiments in triplicate, SD 14.0%.
In the next test the test system is MDRPA CCARM 2003. It counts as cell-based, multidrug-resistant P. aeruginosa. The note with it: broth microdilution, 37°C, 16 h, three independent experiments in triplicate, SD 14.0%.
The next test has as its system MDRPA CCARM 2095. It counts as cell-based, multidrug-resistant P. aeruginosa. The note with it: broth microdilution, 37°C, 16 h, three independent experiments in triplicate, SD 14.0%.

Experimental for MDREC CCARM 1238: (§1) The antimicrobial activities of the peptides against selected organisms, including three Gram-positive, three Gram-negative, and five antibiotic-resistant bacteria, were determined using a broth microdilution assay. Briefly, single colonies of bacteria and fungi were inoculated into Luria-Bertani (LB) medium and cultured overnight at 37°C. An aliquot of the culture was transferred to 10 mL of fresh LB and incubated for an additional 3–5 h at 37°C until it reached the mid-logarithmic phase. Two-fold serial dilutions of the peptides in 1% peptone were prepared. The serial dilutions (100 µL) were added to 100 µL of cells (2×10^6 colony-forming units (CFU)/mL) in 96-well microtiter plates and incubated at 37°C for 16 h. […] MIC values were calculated as the average of triplicate measurements from three independent assays.
Experimental for MDRPA CCARM 2002: as §1
Experimental for MDRPA CCARM 2003: as §1
Experimental for MDRPA CCARM 2095: as §1
Text for MDRST CCARM 8009: Escherichia coli KCTC 1682, E. coli KCTC 2593, E. coli KCTC 2571, Salmonella typhimurium KCTC 1926, Pseudomonas aeruginosa KCTC 1637, P. aeruginosa KCTC 2004, P. aeruginosa KCTC 2513, Bacillus subtilis KCTC 3068, B. subtilis KCTC 1021, B. subtilis KCTC 1022, Staphylococcus epidermidis KCTC 1917, Staphylococcus aureus KCTC 1621, S. aureus KCTC 1916, and S. aureus KCTC 3881 were purchased from the Korean Collection for Type Cultures, Korea Research Institute of Bioscience & Biotechnology (Taejon, Korea). Methicillin-resistant S. aureus (MRSA) (CCARM 3089, CCARM 3090, CCARM 3108, CCARM 3114, and CCARM 3126), multidrug-resistant E. coli (MDREC) (CCARM 1229 and CCARM 1238), multidrug-resistant S. typhimurium (MDRST) (CCARM 8003, CCARM 8007, and CCARM 8009), multidrug-resistant Acinetobacter baumanii (MDRAB) (CCARM 12005, CCARM 12035, CCARM 12036, CCARM 12037), and multidrug-resistant P. aeruginosa (MDRPA) (CCARM 2002, CCARM 2003, CCARM 2095, and CCARM 2163) were obtained from the Culture Collection of Antibiotic-Resistant Microbes (CCARM) at Seoul Women’s University in Korea. The antimicrobial activities of the peptides against selected organisms, including three Gram-positive, three Gram-negative, and five antibiotic-resistant bacteria, were determined using a broth microdilution assay. Briefly, single colonies of bacteria and fungi were inoculated into Luria-Bertani (LB) medium and cultured overnight at 37°C. An aliquot of the culture was transferred to 10 mL of fresh LB and incubated for an additional 3–5 h at 37°C until it reached the mid-logarithmic phase. Two-fold serial dilutions of the peptides in 1% peptone were prepared. The serial dilutions (100 µL) were added to 100 µL of cells (2×10^6 colony-forming units (CFU)/mL) in 96-well microtiter plates and incubated at 37°C for 16 h. […] MIC values were calculated as the average of triplicate measurements from three independent assays.
Experimental for S. aureus KCTC1621: as §1
Experimental for S. epidermidis KCTC1917: as §1

In the case of “FFHHIFRGIVHVGKTIHRLVTG [Pis-1, reference compound]”, the MIC with E. coli KCTC2593 was 1.0 µM; in the test on P. aeruginosa KCTC1637, 2.0 µM; against P. aeruginosa KCTC2513, 2.0 µM; with S. typhimurium KCTC1926, 2.0 µM; with S. epidermidis KCTC1917, 2.0 µM; with S. aureus KCTC1621, 1.0 µM. For the same sequence, the MIC in the test on MRSA CCARM 3126 came to 4.0 µM; with MDRST CCARM 8007, 4.0 µM; against MDRST CCARM 8009, 4.0 µM; against MDREC CCARM 1238 it was 4.0 µM; with MDRAB CCARM 12037 it was 2.0 µM; in the test on MDRPA CCARM 2002 it was 2.0 µM. In addition, the MIC in the test with MDRPA CCARM 2003 and against MDRPA CCARM 2095 was 2.0 µM in each case.

As a reminder, the MIC is the lowest concentration that inhibits growth of the organism. Low readings indicate a more susceptible organism, high ones a less susceptible organism.

The values above are taken from article PMC4256409, “Role of Phenylalanine and Valine^10 Residues in the Antimicrobial Activity and Cytotoxicity of Piscidin-1” (PLoS ONE, 2014).
